Test results from ChEMBL document CHEMBL1201862, “PubChem BioAssay data set” (2004).
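Five compound concentrations were applied to cells in 96-well plates for 48 hours; endpoints were derived by simple linear interpolation of the resulting dose-response curve. Abbreviation: GI50, concentration required for 50% inhibition of growth.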 Calls of active or inactive are those of the source. Rule as the data show it: active = GI50 up to about 1.1 µM and inactive = higher.

Experiments:
Experiment in all cases: NCI tumour cell line growth inhibition, 48 h
T47D = system: T47D
CAKI-1 = system: CAKI-1
BT-549 = system: BT-549
CCRF-CEM = system: CCRF-CEM
HT-29 = system: HT-29
MCF7 = system: MCF7
M19-MEL = system: M19-MEL
NCI/ADR-RES = system: NCI/ADR-RES
IGROV-1 = system: IGROV-1
MDA-MB-435 = system: MDA-MB-435
COLO 205 = system: COLO 205
HOP-92 = system: HOP-92
Hs-578T = system: Hs-578T
SF-295 = system: SF-295
RXF 393 = system: RXF 393
DLD-1 = system: DLD-1
SNB-75 = system: SNB-75
NCI-H522 = system: NCI-H522
SN12C = system: SN12C
UACC-257 = system: UACC-257

Measured: GI50

CCc1nc2ccc(NCCN(C)C)c3c(=O)c4ccccc4n1c23
inactive: T47D 2.59 µM | CAKI-1 1.56 µM | BT-549 4.61 µM | MCF7 2.11 µM | M19-MEL 2 µM | Hs-578T 1.78 µM | RXF 393 1.67 µM | SNB-75 3 µM | UACC-257 2.48 µM
active: CCRF-CEM 0.586 µM | HT-29 0.489 µM | NCI/ADR-RES 0.431 µM | IGROV-1 0.265 µM | MDA-MB-435 1 µM | COLO 205 0.307 µM | HOP-92 0.592 µM | SF-295 0.741 µM | DLD-1 0.533 µM | NCI-H522 0.946 µM | SN12C 0.404 µM

CN(c1ccccc1)c1cc2ccccc2nn1
inactive: CAKI-1 > 100 µM | CCRF-CEM 47.1 µM | HT-29 > 100 µM | M19-MEL 59.2 µM | IGROV-1 > 100 µM | COLO 205 > 100 µM | HOP-92 > 100 µM | SF-295 67.9 µM | RXF 393 > 100 µM | DLD-1 > 100 µM | SNB-75 64.3 µM | NCI-H522 27.6 µM | SN12C > 100 µM | UACC-257 > 100 µM

COc1ccc(/C=C2/C[N+](C)(C)C/C(=C/c3ccc(OC)cc3)C2=O)cc1
inactive: CAKI-1 > 100 µM | CCRF-CEM 18.5 µM | HT-29 30.2 µM | M19-MEL 23.6 µM | IGROV-1 23.9 µM | COLO 205 16.9 µM | HOP-92 52.1 µM | SF-295 > 77.1 µM | RXF 393 > 100 µM | DLD-1 28.7 µM | SNB-75 66.7 µM | NCI-H522 17.9 µM | SN12C 36.1 µM | UACC-257 29.4 µM

O=C(Nc1ccccc1Br)c1cccc([N+](=O)[O-])c1O
inactive: CAKI-1 3.37 µM | CCRF-CEM 2.78 µM | HT-29 4.73 µM | M19-MEL 2.51 µM | IGROV-1 2.88 µM | COLO 205 3.66 µM | HOP-92 1.63 µM | SF-295 3.87 µM | RXF 393 1.86 µM | DLD-1 4.32 µM | SNB-75 5.25 µM | NCI-H522 2.03 µM | SN12C 3.94 µM | UACC-257 2.01 µM

[N-]=[N+]=NC1CC(n2cc(COCC(F)(F)F)c(=O)[nH]c2=O)OC1CO (stereo unspecified)
inactive: CAKI-1 > 100 µM | CCRF-CEM > 100 µM | HT-29 > 100 µM | M19-MEL > 100 µM | IGROV-1 > 100 µM | COLO 205 > 100 µM | HOP-92 > 100 µM | SF-295 > 100 µM | RXF 393 > 100 µM | DLD-1 > 100 µM | SNB-75 > 100 µM | NCI-H522 > 100 µM | SN12C > 100 µM | UACC-257 > 100 µM
